Data from ChEMBL document CHEMBL1201862, “PubChem BioAssay data set” (2004).
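Following 48 hours of exposure in 96-well plates, responses at five concentrations were used to interpolate endpoints linearly. Here, GI50 denotes the concentration required for 50% inhibition of growth.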 Activity calls are given as the source filed them. Cut-off read from the data, not from the text of the source: active = GI50 up to about 1.1 µM and inactive = higher.

Assays:
Experiment in all cases: DTP human tumour cell line panel, 48 h
MDA-MB-435 = system: MDA-MB-435
MDA-MB-231 = system: MDA-MB-231
A498 = system: A498
NCI-H460 = system: NCI-H460
UO-31 = system: UO-31
UACC-257 = system: UACC-257
EKVX = system: EKVX
U-251 = system: U-251
SF-268 = system: SF-268
TK-10 = system: TK-10
SN12C = system: SN12C
HCT-15 = system: HCT-15
NCI-H23 = system: NCI-H23
HCT-116 = system: HCT-116
NCI-H522 = system: NCI-H522
PC-3 = system: PC-3
COLO 205 = system: COLO 205
SNB-75 = system: SNB-75
SR = system: SR
CAKI-1 = system: CAKI-1
SF-539 = system: SF-539
SF-295 = system: SF-295
MDA-N = system: MDA-N
HOP-62 = system: HOP-62
KM12 = system: KM12
Hs-578T = system: Hs-578T
HT-29 = system: HT-29
T47D = system: T47D
RXF 393 = system: RXF 393
SK-MEL-28 = system: SK-MEL-28
CCRF-CEM = system: CCRF-CEM
OVCAR-3 = system: OVCAR-3
SK-MEL-5 = system: SK-MEL-5
OVCAR-8 = system: OVCAR-8
HCC 2998 = system: HCC 2998
NCI/ADR-RES = system: NCI/ADR-RES
Malme-3M = system: Malme-3M
OVCAR-4 = system: OVCAR-4
A549 = system: A549
IGROV-1 = system: IGROV-1
HOP-92 = system: HOP-92
HL-60 = system: HL-60
UACC-62 = system: UACC-62
LOX IMVI = system: LOX IMVI
SK-MEL-2 = system: SK-MEL-2
SNB-19 = system: SNB-19
M14 = system: M14
OVCAR-5 = system: OVCAR-5
786-0 = system: 786-0
RPMI-8226 = system: RPMI-8226
ACHN = system: ACHN
SW-620 = system: SW-620
MCF7 = system: MCF7
BT-549 = system: BT-549
DU-145 = system: DU-145
K562 = system: K562
MOLT-4 = system: MOLT-4
SK-OV-3 = system: SK-OV-3
NCI-H226 = system: NCI-H226

With `COc1ccc(C2N(c3ccc(F)c([N+](=O)[O-])c3)C(=O)N3C(c4ccc(OC)cc4)N(c4ccc(F)c([N+](=O)[O-])c4)C(=O)N23)cc1` (configuration not stated) the GI50 (MDA-MB-435) was > 100 µM (inactive), the GI50 (MDA-MB-231) was 57.1 µM (inactive) and the GI50 (A498) was > 100 µM (inactive). For the same compound, the GI50 (NCI-H460) was > 100 µM (inactive), the GI50 (UO-31) was > 100 µM (inactive) and the GI50 (UACC-257) was > 100 µM (inactive). For the same compound, the GI50 (EKVX) was > 100 µM (inactive), the GI50 (U-251) was > 100 µM (inactive) and the GI50 (SF-268) was > 100 µM (inactive). For the same compound, the GI50 (TK-10) was > 100 µM (inactive), the GI50 (SN12C) was > 100 µM (inactive) and the GI50 (HCT-15) was over 100 µM. The GI50 (NCI-H23) was > 100 µM (inactive), the GI50 (HCT-116) was > 100 µM (inactive) and the GI50 (NCI-H522) was > 100 µM (inactive). For the same compound, the GI50 (PC-3) was > 100 µM (inactive), the GI50 (COLO 205) was > 100 µM (inactive) and the GI50 (SNB-75) was > 100 µM (inactive). The GI50 (SR) was > 100 µM (inactive), the GI50 (CAKI-1) was > 100 µM (inactive) and the GI50 (SF-539) was > 100 µM (inactive). For the same compound, the GI50 (SF-295) was > 100 µM (inactive), the GI50 (MDA-N) was > 100 µM (inactive) and the GI50 (HOP-62) was > 100 µM (inactive). For the same compound, the GI50 (KM12) was > 100 µM (inactive), the GI50 (Hs-578T) was > 100 µM (inactive) and the GI50 (HT-29) was > 100 µM (inactive). The GI50 (T47D) was > 100 µM (inactive), the GI50 (RXF 393) was > 100 µM (inactive) and the GI50 (SK-MEL-28) was > 100 µM (inactive). For the same compound, the GI50 (CCRF-CEM) was > 100 µM (inactive), the GI50 (OVCAR-3) was > 100 µM (inactive) and the GI50 (SK-MEL-5) was > 100 µM (inactive). For the same compound, the GI50 (OVCAR-8) was > 100 µM (inactive), the GI50 (HCC 2998) was > 100 µM (inactive) and the GI50 (NCI/ADR-RES) was > 100 µM (inactive). For the same compound, the GI50 (Malme-3M) was > 100 µM (inactive), the GI50 (OVCAR-4) was > 100 µM (inactive) and the GI50 (A549) was > 100 µM (inactive). The GI50 (IGROV-1) was > 100 µM (inactive), the GI50 (HOP-92) was 23.1 µM (inactive) and the GI50 (HL-60) was > 100 µM (inactive). For the same compound, the GI50 (UACC-62) was > 100 µM (inactive), the GI50 (LOX IMVI) was > 100 µM (inactive) and the GI50 (SK-MEL-2) was > 100 µM (inactive). For the same compound, the GI50 (SNB-19) was > 100 µM (inactive), the GI50 (M14) was 65.9 µM (inactive) and the GI50 (OVCAR-5) was > 100 µM (inactive). For the same compound, the GI50 (786-0) was > 100 µM (inactive), the GI50 (RPMI-8226) was > 100 µM (inactive) and the GI50 (ACHN) was > 100 µM (inactive). For the same compound, the GI50 (SW-620) was > 100 µM (inactive), the GI50 (MCF7) was > 100 µM (inactive) and the GI50 (BT-549) was > 100 µM (inactive). The GI50 (DU-145) was > 100 µM (inactive).
With `CN(C)c1ccc(/C=C(\NC(=O)c2ccccc2)C(=O)NCC(=O)O)cc1` the GI50 (MDA-MB-435) was > 100 µM (inactive), the GI50 (MDA-MB-231) was > 100 µM (inactive) and the GI50 (A498) was > 100 µM (inactive). For the same compound, the GI50 (NCI-H460) was > 100 µM (inactive), the GI50 (UO-31) was > 100 µM (inactive) and the GI50 (UACC-257) was > 100 µM (inactive). For the same compound, the GI50 (EKVX) was > 100 µM (inactive), the GI50 (K562) was > 100 µM (inactive) and the GI50 (U-251) was > 100 µM (inactive). The GI50 (MOLT-4) was > 100 µM (inactive), the GI50 (SF-268) was > 100 µM (inactive) and the GI50 (SN12C) was > 100 µM (inactive). For the same compound, the GI50 (HCT-15) was over 100 µM, the GI50 (NCI-H23) was > 100 µM (inactive) and the GI50 (HCT-116) was > 100 µM (inactive). The GI50 (NCI-H522) was > 100 µM (inactive), the GI50 (PC-3) was > 100 µM (inactive) and the GI50 (COLO 205) was > 100 µM (inactive). The GI50 (SNB-75) was > 100 µM (inactive), the GI50 (SR) was > 100 µM (inactive) and the GI50 (CAKI-1) was > 100 µM (inactive). For the same compound, the GI50 (SF-539) was > 100 µM (inactive), the GI50 (SF-295) was > 100 µM (inactive) and the GI50 (MDA-N) was > 100 µM (inactive). The GI50 (HOP-62) was > 100 µM (inactive), the GI50 (KM12) was > 100 µM (inactive) and the GI50 (SK-OV-3) was > 100 µM (inactive). For the same compound, the GI50 (Hs-578T) was > 100 µM (inactive), the GI50 (NCI-H226) was > 100 µM (inactive) and the GI50 (HT-29) was > 100 µM (inactive). For the same compound, the GI50 (T47D) was > 100 µM (inactive), the GI50 (RXF 393) was > 100 µM (inactive) and the GI50 (SK-MEL-28) was > 100 µM (inactive). The GI50 (CCRF-CEM) was > 100 µM (inactive), the GI50 (OVCAR-3) was > 100 µM (inactive) and the GI50 (SK-MEL-5) was > 100 µM (inactive). The GI50 (OVCAR-8) was > 100 µM (inactive), the GI50 (HCC 2998) was > 100 µM (inactive) and the GI50 (NCI/ADR-RES) was > 100 µM (inactive). For the same compound, the GI50 (Malme-3M) was > 100 µM (inactive), the GI50 (A549) was > 100 µM (inactive) and the GI50 (IGROV-1) was > 100 µM (inactive). For the same compound, the GI50 (HOP-92) was > 100 µM (inactive), the GI50 (HL-60) was 0.0755 µM (active) and the GI50 (UACC-62) was > 100 µM (inactive). For the same compound, the GI50 (LOX IMVI) was > 100 µM (inactive), the GI50 (SK-MEL-2) was > 100 µM (inactive) and the GI50 (SNB-19) was > 100 µM (inactive). For the same compound, the GI50 (M14) was > 100 µM (inactive), the GI50 (OVCAR-5) was > 100 µM (inactive) and the GI50 (786-0) was > 100 µM (inactive). For the same compound, the GI50 (RPMI-8226) was > 100 µM (inactive), the GI50 (ACHN) was > 100 µM (inactive) and the GI50 (SW-620) was > 100 µM (inactive). The GI50 (MCF7) was > 100 µM (inactive), the GI50 (BT-549) was > 100 µM (inactive) and the GI50 (DU-145) was > 100 µM (inactive).
